Test results: ChEMBL document CHEMBL4043168, “The design and SAR of a novel series of 2-aminopyridine based LRRK2 inhibitors” (Bioorg Med Chem Lett, 2017)

Experiments:
[1] = target: Mitogen-activated protein kinase kinase kinase 7 (Homo sapiens) (UniProt O43318); assay: Inhibition of TAK1 conserved Lys2 (DLKPPNLLLVAGGTVLK) in human PBMC at 0.1 uM
[2] = Inhibition of GCK conserved Lys1 (DTVTSELAAVKIVK) in human PBMC at 1 uM
[3] = target: Activated CDC42 kinase 1 (Homo sapiens) (UniProt Q07912); assay: Inhibition of ACK labeling at ATP binding site (TVSVAVKCLKPDVLSQPEAMDDFIR) in human PBMC at 1 uM
Sequence of Activated CDC42 kinase 1 (Homo sapiens) (Q07912 whole entry, looked up): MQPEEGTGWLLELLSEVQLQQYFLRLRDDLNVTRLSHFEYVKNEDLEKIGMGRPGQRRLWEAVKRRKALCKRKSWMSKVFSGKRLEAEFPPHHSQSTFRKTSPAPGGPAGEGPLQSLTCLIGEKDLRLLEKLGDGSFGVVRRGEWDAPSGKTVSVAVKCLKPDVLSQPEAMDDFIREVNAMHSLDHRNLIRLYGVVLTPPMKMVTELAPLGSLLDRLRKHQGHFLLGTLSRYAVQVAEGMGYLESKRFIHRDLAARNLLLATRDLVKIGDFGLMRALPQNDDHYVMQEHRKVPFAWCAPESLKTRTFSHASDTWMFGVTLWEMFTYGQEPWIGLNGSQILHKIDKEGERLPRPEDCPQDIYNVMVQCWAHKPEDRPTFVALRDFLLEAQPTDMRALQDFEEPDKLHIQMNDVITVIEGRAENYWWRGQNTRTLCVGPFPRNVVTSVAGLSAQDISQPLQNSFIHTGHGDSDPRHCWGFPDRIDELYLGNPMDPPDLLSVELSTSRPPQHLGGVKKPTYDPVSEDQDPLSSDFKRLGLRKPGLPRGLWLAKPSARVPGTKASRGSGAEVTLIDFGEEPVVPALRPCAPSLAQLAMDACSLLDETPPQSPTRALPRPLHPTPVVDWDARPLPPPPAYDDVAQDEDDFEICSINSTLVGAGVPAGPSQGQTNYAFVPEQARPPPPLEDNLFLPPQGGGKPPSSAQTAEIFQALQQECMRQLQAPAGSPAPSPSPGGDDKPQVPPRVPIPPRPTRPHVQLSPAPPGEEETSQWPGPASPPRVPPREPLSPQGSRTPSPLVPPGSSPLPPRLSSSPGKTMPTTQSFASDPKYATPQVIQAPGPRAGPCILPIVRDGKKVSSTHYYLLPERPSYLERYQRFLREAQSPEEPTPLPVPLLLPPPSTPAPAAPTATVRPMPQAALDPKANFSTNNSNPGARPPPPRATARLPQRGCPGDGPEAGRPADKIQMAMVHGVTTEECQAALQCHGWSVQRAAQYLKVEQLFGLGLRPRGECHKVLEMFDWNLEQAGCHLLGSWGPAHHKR

[4] = target: 5'-AMP-activated protein kinase catalytic subunit alpha-1 (Homo sapiens) (UniProt Q13131); assay: Inhibition of AMPKa1 labeling at conserved Lys2 (DLKPENVLLDAHMNAK) in human PBMC at 1 uM
Sequence of 5'-AMP-activated protein kinase catalytic subunit alpha-1 (Homo sapiens) (Q13131 whole entry, looked up, the tested form may be a part): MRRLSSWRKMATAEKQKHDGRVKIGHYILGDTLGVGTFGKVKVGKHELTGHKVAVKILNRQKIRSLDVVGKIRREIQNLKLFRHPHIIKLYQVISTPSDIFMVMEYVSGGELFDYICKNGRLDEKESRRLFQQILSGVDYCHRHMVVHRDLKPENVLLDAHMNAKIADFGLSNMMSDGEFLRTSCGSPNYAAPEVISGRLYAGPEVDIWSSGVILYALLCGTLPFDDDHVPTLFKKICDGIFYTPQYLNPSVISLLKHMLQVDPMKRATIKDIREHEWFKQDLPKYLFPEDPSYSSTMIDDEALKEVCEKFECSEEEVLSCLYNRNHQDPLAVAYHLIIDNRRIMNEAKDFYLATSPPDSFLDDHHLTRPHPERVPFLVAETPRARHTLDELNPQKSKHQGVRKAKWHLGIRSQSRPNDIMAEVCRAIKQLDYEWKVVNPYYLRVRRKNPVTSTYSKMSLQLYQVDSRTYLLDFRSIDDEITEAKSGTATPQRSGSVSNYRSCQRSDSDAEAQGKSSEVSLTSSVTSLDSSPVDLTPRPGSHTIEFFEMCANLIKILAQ

[5] = target: T1, Tyrosine-protein kinase JAK3 (Homo sapiens) (UniProt P52333); assay: Inhibition of JAK3 domain2 conserved Lys1 (YDPLGDNTGALVAVKQLQHSGPDQQR) in human PBMC at 0.1 uM
T1 sequence (whole entry): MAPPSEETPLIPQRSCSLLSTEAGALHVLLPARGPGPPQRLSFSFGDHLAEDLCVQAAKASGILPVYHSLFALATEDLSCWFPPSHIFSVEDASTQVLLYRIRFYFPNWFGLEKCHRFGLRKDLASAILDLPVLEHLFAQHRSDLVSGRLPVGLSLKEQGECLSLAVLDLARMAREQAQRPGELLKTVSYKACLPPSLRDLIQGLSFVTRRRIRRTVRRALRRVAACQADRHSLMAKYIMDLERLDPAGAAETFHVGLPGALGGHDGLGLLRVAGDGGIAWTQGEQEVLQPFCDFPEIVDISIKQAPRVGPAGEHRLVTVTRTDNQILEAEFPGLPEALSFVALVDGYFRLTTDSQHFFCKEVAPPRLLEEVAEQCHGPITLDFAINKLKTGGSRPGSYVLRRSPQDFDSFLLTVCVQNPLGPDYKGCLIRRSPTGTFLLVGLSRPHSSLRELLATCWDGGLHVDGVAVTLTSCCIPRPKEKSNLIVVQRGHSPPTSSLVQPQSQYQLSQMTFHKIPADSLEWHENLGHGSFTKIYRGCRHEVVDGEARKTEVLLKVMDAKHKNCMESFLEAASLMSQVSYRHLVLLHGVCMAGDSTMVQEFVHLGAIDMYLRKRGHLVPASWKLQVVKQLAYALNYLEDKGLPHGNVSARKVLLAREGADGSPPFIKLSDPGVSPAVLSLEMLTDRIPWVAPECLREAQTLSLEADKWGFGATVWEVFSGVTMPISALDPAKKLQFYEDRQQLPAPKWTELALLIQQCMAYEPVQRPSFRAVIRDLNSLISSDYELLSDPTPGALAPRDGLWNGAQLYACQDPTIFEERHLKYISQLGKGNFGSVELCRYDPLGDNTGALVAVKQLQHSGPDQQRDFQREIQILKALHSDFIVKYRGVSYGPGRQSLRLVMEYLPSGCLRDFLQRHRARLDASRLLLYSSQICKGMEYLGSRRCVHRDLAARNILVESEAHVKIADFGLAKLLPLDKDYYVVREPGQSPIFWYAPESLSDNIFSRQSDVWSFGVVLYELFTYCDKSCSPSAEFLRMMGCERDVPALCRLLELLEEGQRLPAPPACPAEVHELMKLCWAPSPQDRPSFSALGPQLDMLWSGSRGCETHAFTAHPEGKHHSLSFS

[6] = target: Serine/threonine-protein kinase Nek7 (Homo sapiens) (UniProt Q8TDX7); assay: Inhibition of NEK7 conserved Lys2 (DIKPANVFITATGVVK) in human PBMC at 1 uM
Sequence of Serine/threonine-protein kinase Nek7 (Homo sapiens) (Q8TDX7 whole entry, looked up): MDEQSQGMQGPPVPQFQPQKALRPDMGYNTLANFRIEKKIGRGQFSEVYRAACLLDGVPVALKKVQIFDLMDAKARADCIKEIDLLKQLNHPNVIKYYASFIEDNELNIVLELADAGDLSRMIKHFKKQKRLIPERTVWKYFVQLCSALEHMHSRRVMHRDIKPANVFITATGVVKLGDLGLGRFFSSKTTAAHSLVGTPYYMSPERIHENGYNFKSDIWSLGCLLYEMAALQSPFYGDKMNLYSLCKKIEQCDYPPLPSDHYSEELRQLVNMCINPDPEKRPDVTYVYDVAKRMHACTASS

[7] = target: Kinase suppressor of Ras 2 (Homo sapiens) (UniProt Q6VAB6); assay: Inhibition of KSR2 activation Loop (SKNVFYDNGK) in human PBMC at 0.1 uM
Sequence of Kinase suppressor of Ras 2 (Homo sapiens) (Q6VAB6 whole entry): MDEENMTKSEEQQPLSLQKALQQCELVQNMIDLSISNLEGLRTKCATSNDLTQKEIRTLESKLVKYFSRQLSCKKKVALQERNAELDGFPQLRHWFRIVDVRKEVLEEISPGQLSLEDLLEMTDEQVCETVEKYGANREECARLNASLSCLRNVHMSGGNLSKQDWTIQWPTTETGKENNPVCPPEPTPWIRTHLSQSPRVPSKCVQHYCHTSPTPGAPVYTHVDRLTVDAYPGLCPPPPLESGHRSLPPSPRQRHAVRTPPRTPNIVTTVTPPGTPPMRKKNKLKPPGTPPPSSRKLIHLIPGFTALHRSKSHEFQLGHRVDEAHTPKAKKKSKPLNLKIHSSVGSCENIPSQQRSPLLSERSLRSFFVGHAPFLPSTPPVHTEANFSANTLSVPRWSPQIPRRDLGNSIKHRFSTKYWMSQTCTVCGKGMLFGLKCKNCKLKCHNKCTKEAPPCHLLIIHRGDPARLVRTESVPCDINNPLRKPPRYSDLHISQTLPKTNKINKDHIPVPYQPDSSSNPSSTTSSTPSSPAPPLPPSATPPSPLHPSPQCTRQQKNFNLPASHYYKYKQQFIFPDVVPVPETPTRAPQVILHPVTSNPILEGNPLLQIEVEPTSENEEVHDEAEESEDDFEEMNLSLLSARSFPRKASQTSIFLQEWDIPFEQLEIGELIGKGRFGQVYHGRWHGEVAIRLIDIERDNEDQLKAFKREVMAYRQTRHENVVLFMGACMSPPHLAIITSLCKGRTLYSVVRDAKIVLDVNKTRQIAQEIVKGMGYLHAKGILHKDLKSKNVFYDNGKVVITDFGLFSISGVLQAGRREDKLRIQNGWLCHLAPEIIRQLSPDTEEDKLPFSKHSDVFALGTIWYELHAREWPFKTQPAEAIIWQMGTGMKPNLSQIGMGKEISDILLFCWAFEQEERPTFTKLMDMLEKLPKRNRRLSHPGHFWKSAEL

[8] = target: Cyclin-dependent kinase 5 (Homo sapiens) (UniProt Q00535); assay: Inhibition of CDK5 labeling at conserved Lys2 (DLKPQNLLINR) in human PBMC at 0.1 uM
Sequence of Cyclin-dependent kinase 5 (Homo sapiens) (Q00535 whole entry, looked up, the tested form may be a part): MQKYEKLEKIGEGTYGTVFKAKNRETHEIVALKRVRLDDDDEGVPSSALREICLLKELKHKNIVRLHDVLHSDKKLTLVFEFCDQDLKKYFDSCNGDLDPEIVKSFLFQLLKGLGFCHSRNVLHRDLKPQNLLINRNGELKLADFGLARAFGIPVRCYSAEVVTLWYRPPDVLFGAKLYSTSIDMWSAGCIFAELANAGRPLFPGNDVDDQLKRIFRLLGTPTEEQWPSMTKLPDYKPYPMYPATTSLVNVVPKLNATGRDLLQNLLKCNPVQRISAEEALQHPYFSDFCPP

[9] = target: Ribosomal protein S6 kinase alpha-1 (Homo sapiens) (UniProt Q15418); assay: Inhibition of RSK1 domain2 conserved Lys2 (DLKPSNILYVDESGNPECLR) in human PBMC at 0.1 uM
Sequence of Ribosomal protein S6 kinase alpha-1 (Homo sapiens) (Q15418 whole entry, the tested form may be a part, canonical isoform): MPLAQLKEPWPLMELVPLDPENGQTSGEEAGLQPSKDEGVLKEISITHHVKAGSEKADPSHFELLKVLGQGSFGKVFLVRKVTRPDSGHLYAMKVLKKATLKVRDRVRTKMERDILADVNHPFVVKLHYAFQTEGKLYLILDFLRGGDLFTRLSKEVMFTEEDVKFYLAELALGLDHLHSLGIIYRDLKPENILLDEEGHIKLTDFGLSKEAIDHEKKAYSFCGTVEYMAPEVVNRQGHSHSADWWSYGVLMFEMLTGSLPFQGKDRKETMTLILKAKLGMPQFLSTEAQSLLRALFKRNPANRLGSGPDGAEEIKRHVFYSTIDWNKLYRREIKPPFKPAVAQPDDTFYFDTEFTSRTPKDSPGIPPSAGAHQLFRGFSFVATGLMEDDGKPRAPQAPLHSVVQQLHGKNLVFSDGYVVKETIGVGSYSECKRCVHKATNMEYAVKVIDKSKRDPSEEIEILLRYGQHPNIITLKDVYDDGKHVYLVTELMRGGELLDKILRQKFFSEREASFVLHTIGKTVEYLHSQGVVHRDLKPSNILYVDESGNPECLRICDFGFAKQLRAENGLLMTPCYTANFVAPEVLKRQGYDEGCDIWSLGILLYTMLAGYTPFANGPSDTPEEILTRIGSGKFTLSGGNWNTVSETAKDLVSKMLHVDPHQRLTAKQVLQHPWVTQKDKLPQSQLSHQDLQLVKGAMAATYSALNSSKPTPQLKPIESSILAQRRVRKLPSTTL

[10] = target: Ribosomal protein S6 kinase alpha-1 (Homo sapiens) (UniProt Q15418); assay: Inhibition of RSK1 domain2 conserved Lys2 (DLKPSNILYVDESGNPECLR) in human PBMC at 1 uM
[11] = target: T2, Phosphatidylinositol 4,5-bisphosphate 3-kinase catalytic subunit delta isoform (Homo sapiens) (UniProt O00329); assay: Inhibition of PIK3CD ATP binding site (VNWLAHNVSKDNRQ) in human PBMC at 1 uM
T2 sequence (whole entry): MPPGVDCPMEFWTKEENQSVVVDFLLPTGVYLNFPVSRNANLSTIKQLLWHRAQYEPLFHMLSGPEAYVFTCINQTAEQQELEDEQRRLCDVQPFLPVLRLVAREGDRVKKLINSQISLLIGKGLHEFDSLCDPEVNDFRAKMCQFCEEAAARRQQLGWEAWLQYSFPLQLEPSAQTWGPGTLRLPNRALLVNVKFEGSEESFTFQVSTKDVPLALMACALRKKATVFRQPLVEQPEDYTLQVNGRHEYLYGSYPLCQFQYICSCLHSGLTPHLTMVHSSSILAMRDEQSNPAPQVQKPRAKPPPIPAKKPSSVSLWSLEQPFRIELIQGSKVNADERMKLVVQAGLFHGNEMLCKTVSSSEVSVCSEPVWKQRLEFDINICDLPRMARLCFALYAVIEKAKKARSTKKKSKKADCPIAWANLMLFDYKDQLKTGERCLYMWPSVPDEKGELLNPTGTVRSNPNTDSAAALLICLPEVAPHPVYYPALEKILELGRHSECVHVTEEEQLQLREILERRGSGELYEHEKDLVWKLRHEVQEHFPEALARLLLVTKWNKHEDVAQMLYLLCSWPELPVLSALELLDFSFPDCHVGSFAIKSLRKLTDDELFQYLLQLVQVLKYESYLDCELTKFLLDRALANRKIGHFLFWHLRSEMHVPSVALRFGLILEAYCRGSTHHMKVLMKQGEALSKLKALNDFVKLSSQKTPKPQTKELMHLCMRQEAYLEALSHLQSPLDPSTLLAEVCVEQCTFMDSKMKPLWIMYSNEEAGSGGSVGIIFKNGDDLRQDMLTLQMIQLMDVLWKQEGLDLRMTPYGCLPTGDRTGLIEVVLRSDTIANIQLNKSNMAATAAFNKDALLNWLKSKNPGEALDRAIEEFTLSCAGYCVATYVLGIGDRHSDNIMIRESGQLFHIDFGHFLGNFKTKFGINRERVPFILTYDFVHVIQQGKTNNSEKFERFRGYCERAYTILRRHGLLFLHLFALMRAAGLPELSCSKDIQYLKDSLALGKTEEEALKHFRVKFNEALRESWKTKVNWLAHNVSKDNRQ

Sequence of Mitogen-activated protein kinase kinase kinase 7 (Homo sapiens) (O43318 whole entry): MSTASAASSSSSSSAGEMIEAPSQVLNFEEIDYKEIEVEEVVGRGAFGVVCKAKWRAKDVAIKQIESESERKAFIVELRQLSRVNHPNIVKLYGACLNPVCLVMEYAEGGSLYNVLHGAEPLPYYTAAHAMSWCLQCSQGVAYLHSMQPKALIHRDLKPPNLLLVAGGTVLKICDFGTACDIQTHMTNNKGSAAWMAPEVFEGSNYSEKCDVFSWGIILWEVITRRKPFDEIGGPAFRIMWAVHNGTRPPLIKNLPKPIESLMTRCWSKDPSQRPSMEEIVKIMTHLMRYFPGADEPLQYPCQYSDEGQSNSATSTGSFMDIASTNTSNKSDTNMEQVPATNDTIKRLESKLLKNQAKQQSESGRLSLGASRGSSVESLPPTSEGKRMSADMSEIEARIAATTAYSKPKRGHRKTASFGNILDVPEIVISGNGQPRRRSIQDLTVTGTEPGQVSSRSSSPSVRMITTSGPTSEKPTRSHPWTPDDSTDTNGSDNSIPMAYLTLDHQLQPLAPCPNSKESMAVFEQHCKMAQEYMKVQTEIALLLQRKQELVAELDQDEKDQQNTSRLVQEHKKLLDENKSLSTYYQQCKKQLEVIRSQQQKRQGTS

CC(C)n1cc(-c2cc(-c3ccc(CN4CCOCC4)cc3)cnc2N)nn1
inhibition [1]: -0.4% | inhibition [2]: 0.5% | inhibition [3]: -5.7% | inhibition [4]: 17.5% | inhibition [5]: -8% | inhibition [6]: -9.6% | inhibition [7]: 20.4% | inhibition [8]: -3.3% | inhibition [9]: 8.3% | inhibition [10]: -6% | inhibition [11]: 8%
